According to PubChem BioAssay AID328 (DTP/NCI, 2004):
Inconclusive results and toxic doses are left out.

Tested on: BDF1 mice, P388 leukemia ip, median survival T/C
Assay: NCI In Vivo Anticancer Drug Screen. Data for tumor model P388 Leukemia (intraperitoneal) in B6D2F1 (BDF1) mice
Conditions: endpoint: median survival time, higher = longer survival
Method in brief: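 Transplantable tumour in mice; compound vs vehicle dosing; survival scored; ratio of treated to control reported.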

[1] = dose: 100.0 mg/kg/injection, schedule: Q01DX009 (ip), vehicle: Klucel (hydroxypropylcellulose) (HPC)
[2] = dose: 100.0 mg/kg/injection, schedule: Q04DX003 (ip), vehicle: Klucel (hydroxypropylcellulose) (HPC)
[3] = dose: 200.0 mg/kg/injection, schedule: Q01DX009 (ip), vehicle: Klucel (hydroxypropylcellulose) (HPC)
[4] = dose: 200.0 mg/kg/injection, schedule: Q04DX003 (ip), vehicle: Klucel (hydroxypropylcellulose) (HPC)
[5] = dose: 400.0 mg/kg/injection, schedule: Q01DX009 (ip), vehicle: Klucel (hydroxypropylcellulose) (HPC)
[6] = dose: 400.0 mg/kg/injection, schedule: Q04DX003 (ip), vehicle: Klucel (hydroxypropylcellulose) (HPC)
[7] = dose: 50.0 mg/kg/injection, schedule: Q01DX009 (ip), vehicle: saline with Tween-80
[8] = dose: 100.0 mg/kg/injection, schedule: Q04DX003 (ip), vehicle: saline with Tween-80
[9] = dose: 200.0 mg/kg/injection, schedule: Q01DX009 (ip), vehicle: saline with Tween-80
[10] = dose: 200.0 mg/kg/injection, schedule: Q04DX003 (ip), vehicle: saline with Tween-80
[11] = dose: 100.0 mg/kg/injection, schedule: Q01DX009 (ip), vehicle: saline with Tween-80

CCc1cc2c(cc1C(=O)/C=C\C(=O)O)C(C)(C)CCC2(C)C
T/C (dose: 2.5 mg/kg/injection, schedule: Q01DX009 (ip), vehicle: Klucel (hydroxypropylcellulose) (HPC)): 102 % of control
T/C (dose: 5.0 mg/kg/injection, schedule: Q01DX009 (ip), vehicle: Klucel (hydroxypropylcellulose) (HPC)): 99 % of control
T/C (dose: 10.0 mg/kg/injection, schedule: Q01DX009 (ip), vehicle: Klucel (hydroxypropylcellulose) (HPC)): 100 % of control

CCCCSCC(N)C(=O)O (stereo not given)
T/C [1]: 116 % of control
T/C [2]: 104 % of control
T/C [3]: 121 % of control
T/C [4]: 104 % of control
T/C [5]: 111 % of control
T/C [6]: 95 % of control

S=c1[nH]cc2cnccn12
T/C (dose: 25.0 mg/kg/injection, schedule: Q01DX009 (ip), vehicle: saline with Tween-80): 110 % of control
T/C [7]: 115 % of control
T/C [8]: 100 % of control
T/C [9]: 105 % of control
T/C [10]: 110 % of control

CC(=O)C(C(C)=O)c1ccccc1.CC(=O)C(C(C)=O)c1ccccc1.[Ni]
T/C (dose: 3.0 mg/kg/injection, schedule: Q01DX009 (ip), vehicle: Klucel (hydroxypropylcellulose) (HPC)): 110 % of control
T/C (dose: 6.0 mg/kg/injection, schedule: Q01DX009 (ip), vehicle: Klucel (hydroxypropylcellulose) (HPC)): 100 % of control
T/C (dose: 6.0 mg/kg/injection, schedule: Q04DX003 (ip), vehicle: other): 100 % of control
T/C (dose: 12.0 mg/kg/injection, schedule: Q01DX009 (ip), vehicle: Klucel (hydroxypropylcellulose) (HPC)): 100 % of control
T/C (dose: 12.0 mg/kg/injection, schedule: Q04DX003 (ip), vehicle: other): 95 % of control
T/C (dose: 25.0 mg/kg/injection, schedule: Q04DX003 (ip), vehicle: other): 100 % of control

CC(=O)OC1CC2(O)C(CCC3(C)C(c4ccc(=O)oc4)CCC32O)C2(C)C1=CC(O)C1OC12 (stereo not given)
T/C (dose: 0.05 mg/kg/injection, schedule: Q01DX010 (ip), vehicle: carboxymethylcellulose (CMC)): 105 % of control
T/C (dose: 0.1 mg/kg/injection, schedule: Q01DX010 (ip), vehicle: carboxymethylcellulose (CMC)): 95 % of control
T/C (dose: 0.2 mg/kg/injection, schedule: Q01DX010 (ip), vehicle: carboxymethylcellulose (CMC)): 105 % of control
T/C (dose: 0.5 mg/kg/injection, schedule: Q01DX010 (ip), vehicle: carboxymethylcellulose (CMC)): 90 % of control

CCN(CC)c1cc(=S)c2c(ccc3ccccc32)o1
T/C [7]: 100 % of control
T/C [11]: 106 % of control
T/C [9]: 103 % of control

Cc1noc2ncnc(NCCCN(C)C)c12
T/C [7]: 99 % of control
T/C [11]: 99 % of control
T/C [9]: 102 % of control

Cc1ccc(NC(=O)c2ccccc2C(=O)O)cc1Cl
T/C [2]: 95 % of control
T/C [4]: 95 % of control
T/C [6]: 91 % of control

Cc1[nH]c(C)c(C(=O)OC2CCN(C)CC2)c1C
T/C (dose: 6.25 mg/kg/injection, schedule: Q04DX003 (ip), vehicle: saline with Tween-80): 103 % of control
T/C (dose: 12.5 mg/kg/injection, schedule: Q04DX003 (ip), vehicle: saline with Tween-80): 100 % of control
T/C (dose: 25.0 mg/kg/injection, schedule: Q04DX003 (ip), vehicle: saline with Tween-80): 91 % of control

CSc1nnnn1-c1ccccc1
T/C (dose: 16.5 mg/kg/injection, schedule: Q01DX009 (ip), vehicle: Klucel (hydroxypropylcellulose) (HPC)): 104 % of control
T/C (dose: 25.0 mg/kg/injection, schedule: Q01DX009 (ip), vehicle: Klucel (hydroxypropylcellulose) (HPC)): 95 % of control
T/C (dose: 37.5 mg/kg/injection, schedule: Q01DX009 (ip), vehicle: Klucel (hydroxypropylcellulose) (HPC)): 104 % of control
T/C (dose: 50.0 mg/kg/injection, schedule: Q01DX009 (ip), vehicle: Klucel (hydroxypropylcellulose) (HPC)): 100 % of control
T/C [1]: 100 % of control

N#Cc1c(N)sc(N)c1C#N
T/C [3]: 115 % of control
T/C [5]: 110 % of control

C=C(C)C12CC(C)C34OC5(CCCCCCCC(C)C6C(C)C(OC(=O)c7ccccc7)C(O)(C(O)C7(COC(=O)CCCCCCCCCCCCCCC)OC7C3C1O5)C64)O2 (stereo not given)
T/C (dose: 0.6 micrograms/kg/injection, schedule: Q01DX009 (ip), vehicle: saline + alcohol): 104 % of control
T/C (dose: 1.3 micrograms/kg/injection, schedule: Q01DX009 (ip), vehicle: saline + alcohol): 112 % of control
T/C (dose: 1.5 micrograms/kg/injection, schedule: Q01DX009 (ip), vehicle: saline + alcohol): 103 % of control
T/C (dose: 2.5 micrograms/kg/injection, schedule: Q01DX009 (ip), vehicle: saline + alcohol): 109 % of control
T/C (dose: 3.1 micrograms/kg/injection, schedule: Q01DX009 (ip), vehicle: saline + alcohol): 106 % of control
T/C (dose: 5.0 micrograms/kg/injection, schedule: Q01DX009 (ip), vehicle: saline + alcohol): 112 % of control
T/C (dose: 10.0 micrograms/kg/injection, schedule: Q01DX009 (ip), vehicle: saline + alcohol): 96 % of control
T/C (dose: 12.5 micrograms/kg/injection, schedule: Q01DX009 (ip), vehicle: saline + alcohol): 154 % of control
T/C (dose: 20.0 micrograms/kg/injection, schedule: Q01DX009 (ip), vehicle: saline + alcohol): 116 % of control
T/C (dose: 25.0 micrograms/kg/injection, schedule: Q01DX009 (ip), vehicle: saline + alcohol): 168 % of control
T/C (dose: 50.0 micrograms/kg/injection, schedule: Q01DX009 (ip), vehicle: saline + alcohol): 183 % of control
T/C (dose: 80.0 micrograms/kg/injection, schedule: Q01DX009 (ip), vehicle: saline + alcohol): 116 % of control

CCCCC(C)(O)CC (stereo not given)
T/C [7]: 109 % of control
T/C [11]: 118 % of control
T/C [8]: 104 % of control
T/C [9]: 100 % of control
T/C [10]: 104 % of control

CCCc1nn2c(-c3ccccc3)nnc2o1
T/C [8]: 110 % of control
T/C [10]: 115 % of control
T/C (dose: 400.0 mg/kg/injection, schedule: Q04DX003 (ip), vehicle: saline with Tween-80): 110 % of control

O=C1/C(=C/c2ccccc2)Cc2cccc(O)c21
T/C (dose: 37.5 mg/kg/injection, schedule: Q01DX001 (ip), vehicle: saline with Tween-80): 100 % of control
T/C (dose: 75.0 mg/kg/injection, schedule: Q01DX001 (ip), vehicle: saline with Tween-80): 100 % of control
T/C (dose: 150.0 mg/kg/injection, schedule: Q01DX001 (ip), vehicle: saline with Tween-80): 100 % of control

C=CCC(CC)(C(=O)OCC)C(=O)OCC
T/C (dose: 100.0 mg/kg/injection, schedule: Q01DX009 (ip), vehicle: saline): 100 % of control
T/C (dose: 200.0 mg/kg/injection, schedule: Q01DX009 (ip), vehicle: saline): 104 % of control
T/C (dose: 400.0 mg/kg/injection, schedule: Q01DX009 (ip), vehicle: saline): 122 % of control

O=C(CCc1ccc(O)cc1)c1c(O)cc(O)cc1OC1OC(CO)C(O)C(O)C1O (stereo not given)
T/C (dose: 115.0 mg/kg/injection, schedule: Q01DX010 (ip), vehicle: saline): 100 % of control
T/C (dose: 175.0 mg/kg/injection, schedule: Q01DX010 (ip), vehicle: saline): 109 % of control
T/C (dose: 265.0 mg/kg/injection, schedule: Q01DX010 (ip), vehicle: saline): 100 % of control
T/C (dose: 400.0 mg/kg/injection, schedule: Q01DX010 (ip), vehicle: saline): 95 % of control

CN(C)CCCOC(=O)CC(C)(C)C
T/C (dose: 50.0 mg/kg/injection, schedule: Q01DX005 (ip), vehicle: water): 91 % of control
T/C (dose: 100.0 mg/kg/injection, schedule: Q01DX005 (ip), vehicle: water): 94 % of control

O=C(O)CNCc1ccc(Cl)cc1
T/C (dose: 50.0 mg/kg/injection, schedule: Q04DX003 (ip), vehicle: water): 103 % of control
T/C (dose: 100.0 mg/kg/injection, schedule: Q04DX003 (ip), vehicle: water): 90 % of control
T/C (dose: 200.0 mg/kg/injection, schedule: Q04DX003 (ip), vehicle: water): 94 % of control

COc1ccc(CC#N)c(OCc2ccccc2)c1
T/C (dose: 12.5 mg/kg/injection, schedule: Q01DX009 (ip), vehicle: other): 104 % of control
T/C (dose: 25.0 mg/kg/injection, schedule: Q01DX009 (ip), vehicle: other): 102 % of control
T/C (dose: 50.0 mg/kg/injection, schedule: Q01DX009 (ip), vehicle: other): 98 % of control
T/C (dose: 100.0 mg/kg/injection, schedule: Q01DX009 (ip), vehicle: other): 89 % of control
T/C (dose: 200.0 mg/kg/injection, schedule: Q01DX009 (ip), vehicle: other): 95 % of control

O=c1[nH]cc(Br)c2sccc12
T/C (dose: 150.0 mg/kg/injection, schedule: Q01DX009 (ip), vehicle: saline): 90 % of control
T/C (dose: 225.0 mg/kg/injection, schedule: Q01DX009 (ip), vehicle: saline): 86 % of control
